Results published in the supplement of paper PMC11208160.

Assay: recombinant barcode read abundance after kanamycin selection (control-corrected) (log10(CPM+1)); higher = more efficient recombination; sequences stand for … in AGTGCAGAGAAAATCGGCCAGTTTTCTCTGCCTGCAGTCCGCATGCCGT…AGATTTATGCAGCGGACTGCCTTTCTCCCAAAGTGATAAACCGGACAGTATCATGGACCGGTTTTCCCGGTAATCCGTATTTGCAAGGTTGGTTTCACT; site = the 11-nt target
Method: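 Pooled E. coli target-specificity screen for the IS621 bridge recombinase. Each library plasmid pairs an 11-nt target (CT core) with a bridge RNA whose target-binding loop (9-nt LTG + 4-nt RTG) is reprogrammed; the rest of the 177-nt WT IS621 bridge RNA scaffold is fixed. The plasmid is co-electroporated with a WT donor plasmid; recombinase is induced with 0.1 mM IPTG and recombinants are selected on kanamycin. Recombinant barcodes are sequenced, converted to CPM, averaged over two biological replicates and corrected by the unselected control CPM. Molecule = full bridge RNA written as DNA: LTG = specificity nt 1-9, RTG = reverse complement of specificity nt 8-11, in the WT scaffold.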
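Further: IS621 recombinase and bridge RNA in Escherichia coli cells.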

Row | Sequence | recombinant barcode read abundance (log10)
1 | AATTGGACTTGGGTTCTAACCTGTTGCTT (site GATTGGACTAA) | 0.0807
2 | AATTGGACTTGGGTTCTAACCTGTTGCTT (site TATTGGACTAA) | 0.455
3 | AATTGTCCTTGGGTTCTAACCTGTTGCGT (site AATTGTCCTAA) | 0.0377
4 | AATTGTCCTTGGGTTCTAACCTGTTGCGT (site AATTGTCCTAC) | 1.17
5 | AATTGTCCTTGGGTTCTAACCTGTTGCGT (site AATTGTCCTAG) | 0.154
6 | AATTGTCCTTGGGTTCTAACCTGTTGCGT (site AATTGTCCTAT) | 0.0639
7 | ACAAACCCTTGGGTTCTAACCTGTTGCTA (site ACAAACCCTTA) | 0.672
8 | ACAAACCCTTGGGTTCTAACCTGTTGCTA (site CTGGCAGCTAG) | 0.85
9 | ACAAATCCTTGGGTTCTAACCTGTTGCCT (site ACAAAACCTAG) | 0.116
10 | ACAAATCCTTGGGTTCTAACCTGTTGCCT (site ACAAACCCTAG) | 0.292
11 | ACAAATCCTTGGGTTCTAACCTGTTGCCT (site ACAAAGCCTAG) | 0.0186
12 | ACAAATCCTTGGGTTCTAACCTGTTGCCT (site ACAAATCCTAG) | 0.591
13 | ACAACGACTTGGGTTCTAACCTGTTGCCT (site ACAACCACTAG) | 0.0471
14 | ACAACGACTTGGGTTCTAACCTGTTGCCT (site ACAACGACTAG) | 0.689
15 | ACAAGGCCTTGGGTTCTAACCTGTTGCAT (site ACAAGGCCTAT) | 1.38
16 | ACAAGGCCTTGGGTTCTAACCTGTTGCAT (site TGCCCCTCTCG) | 0.263
17 | ACAAGGGCTTGGGTTCTAACCTGTTGCTG (site ACAAGGGCTCA) | 2.06
18 | ACAAGGGCTTGGGTTCTAACCTGTTGCTG (site GAGGCTACTAT) | 0.531
19 | ACAATATCTTGGGTTCTAACCTGTTGCCT (site ACAATATCTAG) | 0.774
20 | ACAATATCTTGGGTTCTAACCTGTTGCCT (site ACATGATCTAG) | 0.242

Row | Sequence | recombinant barcode read abundance (log10)
21 | ACACATACTTGGGTTCTAACCTGTTGCCT (site ACACATACTAG) | 0.302
22 | ACACATACTTGGGTTCTAACCTGTTGCCT (site ACGCATACTAG) | 0.104
23 | ACACCCTCTTGGGTTCTAACCTGTTGCAG (site ACACCCTCTCT) | 1.79
24 | ACACCCTCTTGGGTTCTAACCTGTTGCAG (site GGTATAACTTG) | 0.271
25 | ACACCGTCTTGGGTTCTAACCTGTTGCCT (site ACACCGTCTAG) | 2.12
26 | ACACCGTCTTGGGTTCTAACCTGTTGCCT (site AGACCTTCTAG) | 0
27 | ACACGACCTTGGGTTCTAACCTGTTGCGG (site ACACGACCTCC) | 2.48
28 | ACACGACCTTGGGTTCTAACCTGTTGCGG (site ACAGGAGCTCC) | 0
29 | ACAGAGACTTGGGTTCTAACCTGTTGCAG (site ACAGAGACTCT) | 1.35
30 | ACAGAGACTTGGGTTCTAACCTGTTGCAG (site ACGTAGACTCT) | 0.113
31 | ACAGCTACTTGGGTTCTAACCTGTTGCCT (site ACAGCTACTAG) | 1.84
32 | ACAGCTACTTGGGTTCTAACCTGTTGCCT (site ACAGCTTCTAG) | 0.33
33 | ACAGCTACTTGGGTTCTAACCTGTTGCTT (site ACAGCTACTAA) | 0.699
34 | ACAGCTACTTGGGTTCTAACCTGTTGCTT (site GCAGCTACTCA) | 0.0436
35 | ACAGGGTCTTGGGTTCTAACCTGTTGCCT (site AAAGGGTCTAG) | 0
36 | ACAGGGTCTTGGGTTCTAACCTGTTGCCT (site ACAGGGTCTAG) | 2.32
37 | ACAGGGTCTTGGGTTCTAACCTGTTGCCT (site AGAGGGTCTAG) | 0.193
38 | ACAGGGTCTTGGGTTCTAACCTGTTGCCT (site ATAGGGTCTAG) | 0.355
39 | ACAGGTCCTTGGGTTCTAACCTGTTGCCG (site ACAGGTCCTCG) | 2.34
40 | ACAGGTCCTTGGGTTCTAACCTGTTGCCG (site GTCTAATCTAT) | 0.12

Row | Sequence | recombinant barcode read abundance (log10)
41 | ACAGTACCTTGGGTTCTAACCTGTTGCTG (site ACAGTACCTCA) | 1.87
42 | ACAGTACCTTGGGTTCTAACCTGTTGCTG (site TAGCCCTCTTT) | 0.204
43 | ACAGTTACTTGGGTTCTAACCTGTTGCAT (site ACAGTTACTAT) | 1.29
44 | ACAGTTACTTGGGTTCTAACCTGTTGCAT (site TTGTGAGCTTG) | 0.737
45 | ACATACCCTTGGGTTCTAACCTGTTGCTG (site ACATACCCTCA) | 1.81
46 | ACATACCCTTGGGTTCTAACCTGTTGCTG (site CTTCGAACTAT) | 0.142
47 | ACATGGACTTGGGTTCTAACCTGTTGCAT (site ACATGAACTAT) | 0.753
48 | ACATGGACTTGGGTTCTAACCTGTTGCAT (site ACATGCACTAT) | 0.115
49 | ACATGGACTTGGGTTCTAACCTGTTGCAT (site ACATGGACTAT) | 2.72
50 | ACATGGACTTGGGTTCTAACCTGTTGCAT (site ACATGTACTAT) | 0.157
51 | ACATGTACTTGGGTTCTAACCTGTTGCAG (site ACATGTACTCT) | 1.28
52 | ACATGTACTTGGGTTCTAACCTGTTGCAG (site AGATGTACTCA) | 0.0852
53 | ACATGTACTTGGGTTCTAACCTGTTGCAT (site ACATGAACTAT) | 0.0356
54 | ACATGTACTTGGGTTCTAACCTGTTGCAT (site ACATGCACTAT) | 0
55 | ACATGTACTTGGGTTCTAACCTGTTGCAT (site ACATGGACTAT) | 0.121
56 | ACATGTACTTGGGTTCTAACCTGTTGCAT (site ACATGTACTAT) | 0.888
57 | ACATGTACTTGGGTTCTAACCTGTTGCCG (site ACATGTACTCA) | 0.0415
58 | ACATGTACTTGGGTTCTAACCTGTTGCCG (site ACATGTACTCG) | 0.158
59 | ACATGTACTTGGGTTCTAACCTGTTGCTG (site ACATGTACTCA) | 1.1
